Results as given in patent US4260760A, “Diaryl-aliphatic-amino-aliphatic-piperazines” (priority 1979, dated 1981).
Structures can show the parent of a compound that is named as a salt.

Tested on: mice
Assay: Acute Oral LD50 mice (Table I)
Assay type: in vivo
Text: The low toxicity of these compounds makes them especially attractive for use where contact with skin surfaces or possible ingestion renders the use of irritating or toxic materials inadvisable.
______________________________________

Q: How did the “Acute Oral LD50 mice” value turn out when `Cc1ccc(C(C)(C)C)cc1CCCC(CCCc1cc(C(C)(C)C)ccc1C)NCCCNCCCN` [1-[1,7-di-(2-methyl-5-t-butylphenyl)-hydrochloride] was run?
A: The value was 1650 mg/kg.
